{
  "source": "patent US20250276979A1",
  "about": "“SARS-COV2 MAIN PROTEASE INHIBITORS” (Gilead Sciences, Inc., priority 2024, published 2025)",
  "data": [
    {"test_system": "SARS-CoV-2-NLuc in A549-hACE2 cells", "assay": "microbe, parasite or virus in culture", "type": "cell-based", "conditions": "Severe acute respiratory syndrome coronavirus 2, 48 h; read-out: MPro EC50", "units": {"EC50": "nM"}, "values": [
      {"smiles": "COc1cc(-c2cc3c(s2)c(=O)n([C@@H]2CCCNC(=O)C2)c(=O)n3CC2(C#N)CC2)c(Cl)cc1F", "note": "[Example 36, (R)-1-((6-(2-chloro-4-fluoro-5-methoxyphenyl)-2,4-dioxo-3-(2-oxoazepan-4-yl)-3,4-dihydrothieno[3,2-d]pyrimidin-1(2H)-yl)methyl)cyclopropane-1-carbonitrile]", "EC50": "< 4.07"},
      {"smiles": "COc1cc(-c2cc3c(s2)c(=O)n([C@@H]2CCCNC(=O)C2)c(=O)n3CCNC(C)=O)c(Cl)cc1F", "note": "[Example 37, (R)—N-(2-(6-(2-chloro-4-fluoro-5-methoxyphenyl)-2,4-dioxo-3-(2-oxoazepan-4-yl)-3,4-dihydrothieno[3,2-d]pyrimidin-1(2H)-yl)ethyl)acetamide]", "EC50": 170},
      {"smiles": "COc1cc(-c2cc3c(s2)c(=O)n([C@@H]2CCCNC(=O)C2)c(=O)n3CCOC(F)(F)F)c(Cl)cc1F", "note": "[Example 38, (R)-6-(2-chloro-4-fluoro-5-methoxyphenyl)-3-(2-oxoazepan-4-yl)-1-(2-(trifluoromethoxy)ethyl)thieno[3,2-d]pyrimidine-2,4(1H,3H)-dione]", "EC50": 208},
      {"smiles": "COc1cc(-c2cc3c(s2)c(=O)n([C@@H]2CCCNC(=O)C2)c(=O)n3CCN2CCCC2=O)c(Cl)cc1F", "note": "[Example 39, (R)-6-(2-chloro-4-fluoro-5-methoxyphenyl)-3-(2-oxoazepan-4-yl)-1-(2-(2-oxopyrrolidin-1-yl)ethyl)thieno[3,2-d]pyrimidine-2,4(1H,3H)-dione]", "EC50": 148},
      {"smiles": "COc1cc(-c2cc3c(s2)c(=O)n([C@@H]2CCCNC(=O)C2)c(=O)n3CCC(=O)N(C)C)c(Cl)cc1F", "note": "[Example 40, (R)-3-(6-(2-chloro-4-fluoro-5-methoxyphenyl)-2,4-dioxo-3-(2-oxoazepan-4-yl)-3,4-dihydrothieno[3,2-d]pyrimidin-1(2H)-yl)-N,N-dimethylpropanamide]", "EC50": 137},
      {"smiles": "COc1cc(-c2cc3c(s2)c(=O)n([C@@H]2CCCNC(=O)C2)c(=O)n3Cc2ncn(C)n2)c(Cl)cc1F", "note": "[Example 41, (R)-6-(2-chloro-4-fluoro-5-methoxyphenyl)-1-((1-methyl-11H-1,2,4-triazol-3-yl)methyl)-3-(2-oxoazepan-4-yl)thieno[3,2-d]pyrimidine-2,4(1H,3H)-dione]", "EC50": 358},
      {"smiles": "CNC(=O)CCn1c(=O)n([C@@H]2CCCNC(=O)C2)c(=O)c2sc(-c3cc(OC)c(F)cc3Cl)cc21", "note": "[Example 42, (R)-3-(6-(2-chloro-4-fluoro-5-methoxyphenyl)-2,4-dioxo-3-(2-oxoazepan-4-yl)-3,4-dihydrothieno[3,2-d]pyrimidin-1(2H)-yl)-N-methylpropanamide]", "EC50": 242},
      {"smiles": "COc1cc(-c2cc3c(s2)c(=O)n([C@@H]2CCCNC(=O)C2)c(=O)n3CC(F)F)c(Cl)cc1F", "note": "[Example 43, (R)-6-(2-chloro-4-fluoro-5-methoxyphenyl)-1-(2,2-difluoroethyl)-3-(2-oxoazepan-4-yl)thieno[3,2-d]pyrimidine-2,4(1H,3H)-dione]", "EC50": 34.4},
      {"smiles": "COc1cnc(Cl)c(-c2cc3[nH]c(=O)n([C@@H]4CCCNC(=O)C4)c(=O)c3s2)c1", "note": "[Example 44, (R)-6-(2-chloro-5-methoxypyridin-3-yl)-3-(2-oxoazepan-4-yl)thieno[3,2-d]pyrimidine-2,4(1H,3H)-dione]", "EC50": 433},
      {"smiles": "COc1cc(-c2cc3[nH]c(=O)n([C@@H]4CCCNC(=O)C4)c(=O)c3s2)c(C)cc1F", "note": "[Example 45, (R)-6-(4-fluoro-5-methoxy-2-methylphenyl)-3-(2-oxoazepan-4-yl)thieno[3,2-d]pyrimidine-2,4(1H,3H)-dione]", "EC50": 137},
      {"smiles": "COc1cc(-c2cc3[nH]c(=O)n([C@@H]4CCCNC(=O)C4)c(=O)c3s2)c(C#N)cc1F", "note": "[Example 46, (R)-2-(2,4-dioxo-3-(2-oxoazepan-4-yl)-1,2,3,4-tetrahydrothieno[3,2-d]pyrimidin-6-yl)-5-fluoro-4-methoxybenzonitrile]", "EC50": 771},
      {"smiles": "COc1cc(-c2cc3[nH]c(=O)n([C@@H]4CCCNC(=O)C4)c(=O)c3s2)c(Cl)cc1Cl", "note": "[Example 47, (R)-6-(2,4-dichloro-5-methoxyphenyl)-3-(2-oxoazepan-4-yl)thieno[3,2-d]pyrimidine-2,4(1H,3H)-dione]", "EC50": 27.7},
      {"smiles": "COc1cc(-c2cc3c(s2)c(=O)n([C@@H]2CCCNC(=O)C2)c(=O)n3CCC#N)c(Cl)cc1F", "note": "[Example 48, (R)-3-(6-(2-chloro-4-fluoro-5-methoxyphenyl)-2,4-dioxo-3-(2-oxoazepan-4-yl)-3,4-dihydrothieno[3,2-d]pyrimidin-1(2H)-yl)propanenitrile]", "EC50": 16.4},
      {"smiles": "COc1cc(-c2cc3c(s2)c(=O)n([C@@H]2CCCNC(=O)C2)c(=O)n3CCC#N)c(C#N)cc1F", "note": "[Example 49, (R)-2-(1-(2-cyanoethyl)-2,4-dioxo-3-(2-oxoazepan-4-yl)-1,2,3,4-tetrahydrothieno[3,2-d]pyrimidin-6-yl)-5-fluoro-4-methoxybenzonitrile]", "EC50": "> 1000"},
      {"smiles": "COc1cnc(Cl)c(-c2cc3c(s2)c(=O)n([C@@H]2CCCNC(=O)C2)c(=O)n3CCC#N)c1", "note": "[Example 50, (R)-3-(6-(2-chloro-5-methoxypyridin-3-yl)-2,4-dioxo-3-(2-oxoazepan-4-yl)-3,4-dihydrothieno[3,2-d]pyrimidin-1(2H)-yl)propanenitrile]", "EC50": "> 1000"},
      {"smiles": "N#CCCn1c(=O)n([C@@H]2CCCNC(=O)C2)c(=O)c2sc(-c3ccccc3Cl)cc21", "note": "[Example 51, (R)-3-(6-(2-chlorophenyl)-2,4-dioxo-3-(2-oxoazepan-4-yl)-3,4-dihydrothieno[3,2-d]pyrimidin-1(2H)-yl)propanenitrile]", "EC50": 98},
      {"smiles": "N#CCCn1c(=O)n([C@@H]2CCCNC(=O)C2)c(=O)c2sc(-c3ccccc3C#N)cc21", "note": "[Example 52, (R)-2-(1-(2-cyanoethyl)-2,4-dioxo-3-(2-oxoazepan-4-yl)-1,2,3,4-tetrahydrothieno[3,2-d]pyrimidin-6-yl)benzonitrile]", "EC50": 619},
      {"smiles": "COc1cc(-c2cc3[nH]c(=O)n(C4CC(=O)NCC(C)(C)C4)c(=O)c3s2)c(Cl)cc1F", "note": "(stereo not shown) [Example 55, 6-(2-chloro-4-fluoro-5-methoxyphenyl)-3-(6,6-dimethyl-2-oxoazepan-4-yl)thieno[3,2-d]pyrimidine-2,4(1H,3H)-dione]", "EC50": 102},
      {"smiles": "COc1cc(-c2cc3[nH]c(=O)n([C@@H]4CCCNC(=O)C4)c(=O)c3cc2OC)c(C#N)cc1F", "note": "[Example 56, (R)-5-fluoro-4-methoxy-2-(6-methoxy-2,4-dioxo-3-(2-oxoazepan-4-yl)-1,2,3,4-tetrahydroquinazolin-7-yl)benzonitrile]", "EC50": 795},
      {"smiles": "COc1cc(-c2cc3[nH]c(=O)n([C@H]4CNC(=O)C4)c(=O)c3o2)c(Cl)cc1F", "note": "[Example 57, 6-(2-chloro-4-fluoro-5-methoxy-phenyl)-3-[(3R)-5-oxopyrrolidin-3-yl]-1H-furo[3,2-d]pyrimidine-2,4-dione]", "EC50": "> 1000"},
      {"smiles": "COc1cc(-c2cc3[nH]c(=O)n(C4CCCCNC(=O)C4)c(=O)c3s2)c(Cl)cc1F", "note": "(stereo not shown) [Example 58, 6-(2-chloro-4-fluoro-5-methoxyphenyl)-3-(2-oxoazocan-4-yl)thieno[3,2-d]pyrimidine-2,4(1H,3H)-dione]", "EC50": 723},
      {"smiles": "COc1cc(-c2cc3[nH]c(=O)n([C@@H]4CCCNC(=O)C4)c(=O)c3o2)c(Cl)cc1F", "note": "[Example 59, (R)-6-(2-chloro-4-fluoro-5-methoxyphenyl)-3-(2-oxoazepan-4-yl)furo[3,2-d]pyrimidine-2,4(1H,3H)-dione]", "EC50": 651}
    ]}
  ]
}
